Columns and labels:
Test in all cases: Test C preemergence
Type in all cases: in vivo
[1] = tested on: pigweed (Amaranthus retroflexus); settings: for Plant response rating, Pigweed: scale 0 to 100, 0 no effect, 100 complete control
Procedure, shortened: (§1)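 Scores of 0 to 100 reflect visual comparison with control plants, where 0 means no effect and 100 complete control, made 13 to 15 d after treatment. Application was preemergence to seeds in loam-sand soil or postemergence to plants 2 to 18 cm tall in peat-based mix, using a surfactant-containing solvent formulation.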

[2] = tested on: morningglory (Ipomoea coccinea); settings: for Plant response rating, Morningglory: scale 0 to 100, 0 no effect, 100 complete control
Procedure, shortened: as §1

[3] = tested on: ryegrass, Italian (Italian ryegrass, Lolium multiflorum); settings: for Plant response rating, Ryegrass, Italian: scale 0 to 100, 0 no effect, 100 complete control
Procedure, shortened: as §1

corn (Zea mays) = settings: for Plant response rating, Corn: scale 0 to 100, 0 no effect, 100 complete control
Procedure, shortened: as §1

[4] = tested on: wheat (winter wheat, Triticum aestivum); settings: for Plant response rating, Wheat: scale 0 to 100, 0 no effect, 100 complete control
Procedure, shortened: as §1

[5] = tested on: ragweed (common ragweed, Ambrosia elatior); settings: for Plant response rating, Ragweed: scale 0 to 100, 0 no effect, 100 complete control
Procedure, shortened: as §1

[6] = tested on: barnyardgrass (Echinochloa crus-galli); settings: for Plant response rating, Barnyardgrass: scale 0 to 100, 0 no effect, 100 complete control
Procedure, shortened: as §1

[7] = tested on: blackgrass (Alopecurus myosuroides); settings: for Plant response rating, Blackgrass: scale 0 to 100, 0 no effect, 100 complete control
Procedure, shortened: as §1

[8] = 31 g ai/ha, 0 is no effect, 100 is complete control

Q: For `CN1C[C@H](c2ccc(C(F)(F)F)cc2)[C@@H](C(=O)Nc2ccccc2F)C1=O` [Compound 622, (3S,4S)—N-(2-fluorophenyl)-1-methyl-2-oxo-4-[4-(trifluoromethyl)phenyl]-3-pyrrolidinecarboxamide], which “Plant response rating (scale of 0 to 100), Pigweed” value [1, 8] is on record?
A: Its value is 75.

Q: And the “Plant response rating, Pigweed” value ([1]; 62 g ai/ha)?
A: The value was 85.

Q: What about the “Plant response rating, Pigweed” value ([1]; 125 g ai/ha) of the same compound?
A: Its value is 85.

Q: What about the “Plant response rating, Pigweed” value ([1]; 250 g ai/ha) of the same compound?
A: The value was 90.

Q: What about the “Plant response rating (scale of 0 to 100), Morningglory” value [2, 8] of the same compound?
A: Its value is 0.

Q: And the “Plant response rating, Morningglory” value ([2]; 62 g ai/ha)?
A: Its value is 0.

Q: What about the “Plant response rating, Morningglory” value ([2]; 125 g ai/ha) of the same compound?
A: Its value is 25.

Q: What about the “Plant response rating, Morningglory” value ([2]; 250 g ai/ha) of the same compound?
A: Its value is 20.

Q: And the “Plant response rating (scale of 0 to 100), Ryegrass, Italian” value [3, 8]?
A: Its value is 25.

Q: What about the “Plant response rating, Ryegrass, Italian” value ([3]; 62 g ai/ha) of the same compound?
A: The value was 50.

Q: What about the “Plant response rating, Ryegrass, Italian” value ([3]; 125 g ai/ha) of the same compound?
A: The value was 35.

Q: What about the “Plant response rating, Ryegrass, Italian” value ([3]; 250 g ai/ha) of the same compound?
A: Its value is 70.

Q: What about the “Plant response rating (scale of 0 to 100), Corn” value (corn (Zea mays); [8]) of the same compound?
A: Its value is 5.

Q: What about the “Plant response rating, Corn” value (corn (Zea mays); 62 g ai/ha) of the same compound?
A: Its value is 45.

Q: What about the “Plant response rating, Corn” value (corn (Zea mays); 125 g ai/ha) of the same compound?
A: Its value is 85.

Q: And the “Plant response rating, Corn” value (corn (Zea mays); 250 g ai/ha)?
A: Its value is 80.

Q: What about the “Plant response rating (scale of 0 to 100), Wheat” value [4, 8] of the same compound?
A: The value was 30.

Q: What about the “Plant response rating, Wheat” value ([4]; 62 g ai/ha) of the same compound?
A: The value was 40.

Q: And the “Plant response rating, Wheat” value ([4]; 125 g ai/ha)?
A: Its value is 70.

Q: What about the “Plant response rating, Wheat” value ([4]; 250 g ai/ha) of the same compound?
A: The value was 80.

Q: And the “Plant response rating (scale of 0 to 100), Ragweed” value [5, 8]?
A: Its value is 45.

Q: What about the “Plant response rating, Ragweed” value ([5]; 62 g ai/ha) of the same compound?
A: The value was 70.

Q: And the “Plant response rating, Ragweed” value ([5]; 125 g ai/ha)?
A: Its value is 85.

Q: And the “Plant response rating, Ragweed” value ([5]; 250 g ai/ha)?
A: Its value is 85.

Q: And the “Plant response rating (scale of 0 to 100), Barnyardgrass” value [6, 8]?
A: The value was 90.

Q: And the “Plant response rating, Barnyardgrass” value ([6]; 62 g ai/ha)?
A: The value was 95.

Q: What about the “Plant response rating, Barnyardgrass” value ([6]; 125 g ai/ha) of the same compound?
A: Its value is 90.

Q: And the “Plant response rating, Barnyardgrass” value ([6]; 250 g ai/ha)?
A: Its value is 95.

Q: What about the “Plant response rating (scale of 0 to 100), Blackgrass” value [7, 8] of the same compound?
A: Its value is 0.

Q: And the “Plant response rating, Blackgrass” value ([7]; 62 g ai/ha)?
A: The value was 0.

Q: And the “Plant response rating, Blackgrass” value ([7]; 125 g ai/ha)?
A: The value was 80.

Q: What about the “Plant response rating, Blackgrass” value ([7]; 250 g ai/ha) of the same compound?
A: Its value is 85.
